Measurements published in patent US7488826B2, “Substituted pyrroline kinase inhibitors” (Janssen Pharmaceutica N.V., priority 2003, dated 2009).

Tests used:
Type in all cases: biochemical
[1] = molecular target: T1, recombinant rabbit GSK-3β protein (Oryctolagus cuniculus, UniProt G1T8E2); assay: Glycogen Synthase Kinase-3 Assay (33P-ATP phosphorylation of PPI-2)
T1 construct: purchased New England Biolabs
Experimental: Compounds were tested for the ability to inhibit recombinant rabbit GSK-3β protein using the following protocol. The test compound was added to a reaction mixture containing Protein Phosphatase Inhibitor-2 (PPI-2) (Calbiochem) (45 ng), rabbit GSK-3β protein (New England Biolabs) (0.75 units) and ^33P-ATP (1 μCi) in 50 mM Tris-HCl (pH 8.0), 10 mM MgCl2, 0.1% BSA, 1 mM DTT and 100 μM Sodium Vanadate. The mixture was reacted for 90 minutes at 30° C. to allow phosphorylation of the PPI-2 protein and then the protein in the reaction was precipitated using 10% TCA. The precipitated protein was collected on filter plates (MultiScreen-DV/Millipore), which were subsequently washed. Finally, the radioactivity was quantified using a TopCount Scintillation Counter (Packard). […] Staurosporine or Valproate, known inhibitors of GSK-3β, were used as a positive control for screening.

[2] = molecular target: PKC-α (Homo sapiens, UniProt P17252); assay: Protein Kinase C Histone-Based Assay; conditions: histone III substrate
Experimental: (§1) Compounds were evaluated for PKC isozyme selectivity using histone III as the substrate. PKC isozymes α, β-II or γ were added to a reaction mixture that contained 20 mM HEPES, (pH 7.4), 940 μM CaCl2, 10 mM MgCl2, 1 mM EGTA. 100 μg/mL phosphatidylserine, 20 μg/mL diacylglycerol, 30 μM ATP, […] [^33P]ATP and 200 μg/mL histone III. The reaction was incubated for 10 min at 30° C. Reactions were terminated by TCA precipitation and spotting on Whatman P81 filters. Filters were washed in 75 mM phosphoric acid and the radioactivity quantified by liquid scintillation counting.

[3] = molecular target: PKC-βII (Homo sapiens, UniProt P05771); assay: Protein Kinase C Histone-Based Assay; conditions: histone III substrate
Experimental: as §1

[4] = molecular target: PKC-γ (Homo sapiens, UniProt P05129); assay: Protein Kinase C Histone-Based Assay; conditions: histone III substrate
Experimental: as §1

T1 sequence (G1T8E2 1-432): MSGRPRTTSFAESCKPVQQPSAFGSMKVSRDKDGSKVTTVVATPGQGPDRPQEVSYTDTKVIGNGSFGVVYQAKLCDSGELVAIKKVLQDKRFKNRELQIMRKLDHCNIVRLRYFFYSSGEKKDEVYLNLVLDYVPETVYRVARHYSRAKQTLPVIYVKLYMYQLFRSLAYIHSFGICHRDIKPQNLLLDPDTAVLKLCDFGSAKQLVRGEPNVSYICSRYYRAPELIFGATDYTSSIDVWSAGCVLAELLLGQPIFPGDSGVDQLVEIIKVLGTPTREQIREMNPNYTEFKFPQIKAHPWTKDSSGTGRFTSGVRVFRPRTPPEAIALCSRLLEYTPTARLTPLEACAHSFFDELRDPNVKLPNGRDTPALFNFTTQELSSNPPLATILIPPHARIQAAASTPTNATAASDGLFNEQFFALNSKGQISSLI
Chain of PKC-βII (P05771 1-673 isoform P05771-2): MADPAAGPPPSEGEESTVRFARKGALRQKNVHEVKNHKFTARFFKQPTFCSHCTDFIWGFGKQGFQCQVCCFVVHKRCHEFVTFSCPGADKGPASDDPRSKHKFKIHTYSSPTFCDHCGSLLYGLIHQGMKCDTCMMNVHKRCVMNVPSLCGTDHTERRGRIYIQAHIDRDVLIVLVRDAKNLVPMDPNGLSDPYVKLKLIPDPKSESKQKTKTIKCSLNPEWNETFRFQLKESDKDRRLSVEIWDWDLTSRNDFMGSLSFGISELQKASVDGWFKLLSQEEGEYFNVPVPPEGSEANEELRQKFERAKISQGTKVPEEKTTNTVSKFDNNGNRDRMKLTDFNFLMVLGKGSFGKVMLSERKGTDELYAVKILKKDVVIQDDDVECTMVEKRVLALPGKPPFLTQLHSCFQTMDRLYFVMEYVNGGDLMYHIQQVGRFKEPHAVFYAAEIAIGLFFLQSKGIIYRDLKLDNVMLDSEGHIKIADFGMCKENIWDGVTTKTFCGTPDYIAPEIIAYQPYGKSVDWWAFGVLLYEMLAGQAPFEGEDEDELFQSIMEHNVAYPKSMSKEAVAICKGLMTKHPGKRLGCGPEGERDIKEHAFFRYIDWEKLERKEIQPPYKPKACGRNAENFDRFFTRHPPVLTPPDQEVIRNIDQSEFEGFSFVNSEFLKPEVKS

| IC50 [1] [nM] | IC50 [2] [nM] | inhibition at 1 µM [3] [%] | IC50 [4] [nM] | inhibition at 10 µM ([2]; @10 μM) [%] | inhibition at 10 µM ([4]; @10 μM) [%] | Compound |
| --- | --- | --- | --- | --- | --- | --- |
| 20 | 2510 | 28 | 4210 |  |  | COCCCn1cc(C2=C(c3ccccc3Cl)C(=O)NC2=O)c2cnccc21 [Cpd 2, 3-(2-Chlorophenyl)-4-[1-(3-methoxypropyl)-1H-pyrrolo[3,2-c]pyridin-3-yl]-1H-pyrrole-2,5-dione] |
| 1.8 |  | 22 |  | 31 | 25 | COCCCn1cc(C2=C(c3ccccc3OC)C(=O)NC2=O)c2cnccc21 [Cpd 1, 3-(2-Methoxyphenyl)-4-[1-(3-methoxypropyl)-1H-pyrrolo[3,2-c]pyridin-3-yl]-1H-pyrrole-2,5-dione] |
